Values quoted from earlier work, collected in patent US11058138B2, “Composition for calcium supplementation” (ABIOGEN PHARMA S.P.A., priority 2017, dated 2021).

Details: versus calcium carbonate

## O=C([O-])CC(O)(CC(=O)[O-])C(=O)[O-].O=C([O-])CC(O)(CC(=O)[O-])C(=O)[O-].[Ca+2].[Ca+2].[Ca+2] [calcium citrate]
  Bioavailability higher than that of calcium carbonate: 20-30%
